Experiments:
T. brucei cells = tested on: T. brucei cells; parameters: method as in PMID 30475806; conditions: T. brucei cells treated with the drug; cited from earlier work
TvxNT3 = TvxNT3 (Trypanosoma vivax, UniProt F9WV62); assay: cell-based; assay type: cell-based
Method in brief: (§1)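 Transporter genes were expressed in an L. mexicana line lacking NT1 and NT2 (SUPKO), and 1 × 10^7 cells in HEPES/bicarbonate buffer pH 7.3 took up radiolabeled permeant through an oil layer, with or without inhibitor. Uptake was stopped with ice-cold unlabeled substrate or by centrifugation, and pellets were counted. IC50 against radiolabeled adenosine was converted to Ki by Cheng–Prusoff using the permeant Km.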

T. b. brucei = conditions: also CNS stage; oral and intraperitoneal administration; cited from earlier work
T. congolense IL3000 [1] = assay: Alamar Blue (resazurin) assay, T. congolense IL3000; assay type: cell-based, Trypanosoma congolense; conditions: against T. congolense
Method in brief: (§2)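 Reported figures represent means over a minimum of three separate-day experiments. In every experiment, EC50 is obtained by nonlinear fitting to a variable-slope sigmoid.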

T. vivax [2] = assay: T. vivax EC50 (from Mabille et al.); assay type: cell-based, Trypanosoma vivax; conditions: from Table 8 data
T. evansi = tested on: T. evansi; parameters: method as in Hulpia et al. [38]; conditions: compound marked *; ref Hulpia et al. [38]; cited from earlier work
T.b.b. B48 [3] = assay: Alamar Blue (resazurin) assay, T. b. brucei B48; assay type: cell-based, Trypanosoma brucei brucei; conditions: against T. b. brucei B48
Method in brief: as §2

L. mexicana Cas9 = assay: Resazurin drug sensitivity assay, LmexCas9; assay type: cell-based, Leishmania mexicana; conditions: resazurin, promastigotes; read-out: LmexCas9 EC50
Method in brief: as §2

[4] = molecular target: T. congolense adenosine transporter; assay: [3H]-adenosine uptake and its inhibition in T. congolense IL3000 bloodstream forms; assay type: cell-based, Trypanosoma congolense
Method in brief: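 Bloodstream-form T. congolense IL3000 (1 × 10^7 cells) in HEPES/bicarbonate buffer pH 7.3 took up [3H]-adenosine over a set interval, with or without inhibitor, ending by ice-cold unlabeled substrate stop or centrifugation through oil. Pellet radioactivity gave IC50 by sigmoid fit; Ki followed by Cheng–Prusoff using adenosine Km.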

T. congolense IL3000 [5] = tested on: T. congolense IL3000; parameters: method as in Hulpia et al. [38]; conditions: values marked *; ref Hulpia et al. [38]; cited from earlier work
L. mexicana SUPKO+TcoAT1 = assay: microbe, parasite or virus in culture; assay type: cell-based, Leishmania mexicana
Method in brief: as §2

L. mexicana SUPKO = assay: microbe, parasite or virus in culture; assay type: cell-based, Leishmania mexicana
Method in brief: as §2

L. mexicana SUPKO+TvxNT3 = assay: microbe, parasite or virus in culture; assay type: cell-based, Leishmania mexicana; conditions: resazurin, promastigotes; read-out: SUPKO+TvxNT3 EC50
Method in brief: as §2

T. vivax [6] = tested on: T. vivax; parameters: method as in Mabille et al. [69]; conditions: added for comparison only; ref Mabille et al. [69]; cited from earlier work
TcoAT1 = assay type: cell-based, Trypanosoma congolense
Method in brief: as §1

T.b.b. B48 [7] = tested on: T.b.b. B48; parameters: method as in Hulpia et al. [38]; conditions: compound marked *; ref Hulpia et al. [38]; cited from earlier work
T. congolense 6C3 [8] = assay: microbe, parasite or virus in culture; assay type: cell-based, Trypanosoma congolense; conditions: resistance factor = EC50 (test strain)/EC50(control strain)
Method in brief: as §2

T. congolense 6C3 [9] = tested on: T. congolense 6C3; parameters: method as in Hulpia et al. [38]; conditions: values marked *; ref Hulpia et al. [38]; cited from earlier work
[10] = tested on: human embryonic kidney (HEK) cells; assay: Resazurin toxicity assay on human embryonic kidney cells; assay type: cell-based
Method in brief: as §2

T. equiperdum = tested on: T. equiperdum; parameters: method as in Hulpia et al. [38]; conditions: compound marked *; ref Hulpia et al. [38]; cited from earlier work

Chain of TvxNT3 (F9WV62 entry or part of it): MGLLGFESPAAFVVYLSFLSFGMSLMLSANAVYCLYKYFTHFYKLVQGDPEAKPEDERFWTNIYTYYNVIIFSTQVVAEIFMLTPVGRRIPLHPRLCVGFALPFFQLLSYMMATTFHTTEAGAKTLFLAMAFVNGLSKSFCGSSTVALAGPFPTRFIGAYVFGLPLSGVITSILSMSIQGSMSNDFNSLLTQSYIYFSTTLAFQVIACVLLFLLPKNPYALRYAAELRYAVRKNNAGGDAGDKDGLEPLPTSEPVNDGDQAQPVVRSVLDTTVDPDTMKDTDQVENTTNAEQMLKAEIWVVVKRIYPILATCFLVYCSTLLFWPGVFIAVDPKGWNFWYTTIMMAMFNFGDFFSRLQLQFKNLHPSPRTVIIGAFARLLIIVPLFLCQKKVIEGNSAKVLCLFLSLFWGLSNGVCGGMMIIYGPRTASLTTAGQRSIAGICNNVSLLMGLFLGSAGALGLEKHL

SMILES: Nc1nc(N)nc(Nc2ccc([As]3SCC(CO)S3)cc2)n1 (stereo not drawn) [melarsoprol]
- cells bearing conjoined nuclei and double kinetoplasts (T. brucei cells): > 10%

SMILES: Nc1ncnc2c1ccn2C1OC(CO)CC1O (stereo not drawn) [FH7429_d, 3′-deoxytubercidin]
- Ki (TvxNT3; 50 nM [3H]-adenosine, 90 s, IC50 converted to Ki, read-out: Ki on the transport of [3H]-adenosine): 388 ± 13 µM
- ΔG0 (TvxNT3; Gibbs free energy of interaction, from Km or Ki): -19.5 kJ/mol
- outcome in T. b. brucei mouse model (T. b. brucei): curative
- fold more potent than tubercidin (T. congolense IL3000 [1]): 150 fold
- fold higher EC50 against T. vivax compared to T. congolense (T. vivax [2]): 10–165 fold
- EC50 (T. evansi): 0.017 ± 0.002 µM
- fold more potent than tubercidin (T.b.b. B48 [3]): 17.2 fold
- EC50 (L. mexicana Cas9): 15.1 ± 1.7 µM
- Ki ([4]; 0.05 µM [3H]-adenosine, 30 s, IC50 converted to Ki, read-out: Ki on the transport of [3H]-adenosine): 319 ± 93 µM
- ΔG0, Gibbs free energy of interaction ([4]; calculated from Km or Ki): -19.9 kJ/mol
- EC50 (T. congolense IL3000 [5]): 0.021 ± 0.001 µM
- SUPKO+TcoAT1 RF (SUPKO) (L. mexicana SUPKO+TcoAT1; Resistance Factor relative to SUPKO): >1.53
- EC50 (L. mexicana SUPKO+TcoAT1; resazurin, promastigotes, read-out: SUPKO+TcoAT1 EC50): 65.3 ± 7.6 µM
- SUPKO RF (Cas9) (L. mexicana SUPKO; Resistance Factor = EC50(SUPKO)/EC50(Cas9)): >6.63
- EC50 (L. mexicana SUPKO; resazurin, promastigotes, read-out: SUPKO EC50): > 100 µM
- EC50 (L. mexicana SUPKO+TvxNT3): > 100 µM
- EC50 (T. vivax [6]): 3.48 ± 0.09 µM
- Ki (TcoAT1; 0.05 µM [3H]-adenosine, 10 s, IC50 converted to Ki, read-out: Ki on the transport of [3H]-adenosine): 810 ± 60 µM
- ΔG0 (TcoAT1; Gibbs free energy of binding, from Km or Ki): -18.0 kJ/mol
- EC50 (T.b.b. B48 [7]): 0.25 ± 0.02 µM
- T. congolense 6C3 RF (T. congolense 6C3 [8]): 0.91
- EC50 (T. congolense 6C3 [9]): 0.019 ± 0.002 µM
- EC50 ([10]; resazurin, 96 well plates, read-out: HEK EC50): > 200 µM
- SI T. equiperdum ([10]; selectivity index = EC50 (HEK cells)/EC50 (T. equiperdum)): >76,000
- SI T. evansi ([10]; selectivity index = EC50 (HEK cells)/EC50 (T. evansi)): >11,800
- EC50 (T. equiperdum): 0.0026 ± 0.0006 µM

From publication PMC9960827, “Cloning and Characterization of Trypanosoma congolense and T. vivax Nucleoside Transporters Reveal the Potential of P1-Type Carriers for the Discovery of Broad-Spectrum Nucleoside-Based Therapeutics against Animal African Trypanosomiasis” (International Journal of Molecular Sciences, 2023)
